Calls of active or inactive are those of the source. No cut-off for these calls is given here.

The results in this text go back to ChEMBL document CHEMBL3046294, “Fungicidal properties of the essential oil of Hesperozygis marifolia on Aspergillus flavus link” (2011).

Assay [1] relates to Aspergillus flavus. As to the kind of experiment: Antifungal activity against Aspergillus flavus assessed as inhibition of mycelial growth measured after 72 hr at 28 +/- 1 degC. In kind it is functional, organism-based.
Assay [2] relates to Frankliniella occidentalis. As to the kind of experiment: Insecticidal activity against Frankliniella occidentalis (western flower thrips) assessed as mortality at 1 ul/45mL. It counts as functional.
Assay [3] relates to Aspergillus flavus. The assay is described as follows: Antifungal activity against Aspergillus flavus assessed as inhibition of mycelial growth measured after 72 hr at 0.8 mg/mL at 28 +/- 1 degC. It counts as functional, organism-based.

`CC(C)[C@H]1CC[C@@H](C)CC1=O` (relative stereo): the inhibition result in the assay with Aspergillus flavus [1] is “inactive”. As to `CC(C)[C@H]1CC[C@H](C)CC1=O` (relative stereo), the inhibition result with Aspergillus flavus [1] was “inactive”. Turning to `CC(C)=C1CC[C@@H](C)CC1=O` [PULEGONE], the mortality in assay [2] turned out to be 100%. For the same molecule, in the assay on Aspergillus flavus [3], the inhibition entry was “Active”.
